Experiments:
[1] = target: Receptor tyrosine-protein kinase erbB-2 (Homo sapiens) (UniProt P04626); test: Inhibition of autophosphorylation of human HER2 cytoplasmic domain (amino acids 676 to 1245) (unknown origin) expressed in Sf9 cells after 1 hr by time-resolved fluorometry
[2] = test system: A549; test: cells; conditions: Homo sapiens, A549, 48 h
[3] = test system: HepG2; test: cells; conditions: Homo sapiens, HepG2, 48 h
[4] = target: Epidermal growth factor receptor (Homo sapiens, UniProt P00533); test: Inhibition of autophosphorylation of EGFR cytoplasmic domain (amino acids 645 to 1186) (unknown origin) expressed in Sf9 cells after 1 hr by time-resolved fluorometry
Sequence of Epidermal growth factor receptor (P00533 whole entry, the tested form may be a part): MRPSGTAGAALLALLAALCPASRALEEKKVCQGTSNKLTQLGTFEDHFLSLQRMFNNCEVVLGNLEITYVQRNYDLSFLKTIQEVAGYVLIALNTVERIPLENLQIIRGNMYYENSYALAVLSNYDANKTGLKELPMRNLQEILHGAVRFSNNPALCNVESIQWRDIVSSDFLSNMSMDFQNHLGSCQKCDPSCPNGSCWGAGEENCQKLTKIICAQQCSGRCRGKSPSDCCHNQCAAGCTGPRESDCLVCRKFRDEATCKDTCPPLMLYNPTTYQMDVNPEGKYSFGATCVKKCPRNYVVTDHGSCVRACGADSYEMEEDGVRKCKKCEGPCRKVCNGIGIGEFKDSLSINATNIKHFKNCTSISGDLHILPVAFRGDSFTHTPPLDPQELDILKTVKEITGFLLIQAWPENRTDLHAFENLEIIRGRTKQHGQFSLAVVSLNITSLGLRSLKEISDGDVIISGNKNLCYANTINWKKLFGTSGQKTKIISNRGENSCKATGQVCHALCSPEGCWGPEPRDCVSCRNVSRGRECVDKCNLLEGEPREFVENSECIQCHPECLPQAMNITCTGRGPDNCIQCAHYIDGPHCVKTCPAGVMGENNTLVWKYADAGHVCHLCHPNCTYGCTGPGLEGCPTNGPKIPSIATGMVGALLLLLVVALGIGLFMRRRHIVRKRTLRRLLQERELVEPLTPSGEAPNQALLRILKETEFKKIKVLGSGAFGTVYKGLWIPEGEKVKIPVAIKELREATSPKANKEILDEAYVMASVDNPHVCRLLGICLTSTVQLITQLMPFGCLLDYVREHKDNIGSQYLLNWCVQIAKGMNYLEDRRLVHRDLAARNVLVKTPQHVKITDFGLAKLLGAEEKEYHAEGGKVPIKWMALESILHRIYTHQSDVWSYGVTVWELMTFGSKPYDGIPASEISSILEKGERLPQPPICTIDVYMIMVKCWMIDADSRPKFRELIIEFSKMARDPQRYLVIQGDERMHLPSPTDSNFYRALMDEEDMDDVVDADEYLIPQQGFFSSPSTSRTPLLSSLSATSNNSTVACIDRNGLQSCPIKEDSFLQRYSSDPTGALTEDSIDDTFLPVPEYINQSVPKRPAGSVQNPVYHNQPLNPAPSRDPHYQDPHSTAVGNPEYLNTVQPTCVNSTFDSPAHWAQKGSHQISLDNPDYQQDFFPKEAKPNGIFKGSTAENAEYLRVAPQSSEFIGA

Sequence of Receptor tyrosine-protein kinase erbB-2 (Homo sapiens) (P04626 whole entry, looked up, the tested form may be a part): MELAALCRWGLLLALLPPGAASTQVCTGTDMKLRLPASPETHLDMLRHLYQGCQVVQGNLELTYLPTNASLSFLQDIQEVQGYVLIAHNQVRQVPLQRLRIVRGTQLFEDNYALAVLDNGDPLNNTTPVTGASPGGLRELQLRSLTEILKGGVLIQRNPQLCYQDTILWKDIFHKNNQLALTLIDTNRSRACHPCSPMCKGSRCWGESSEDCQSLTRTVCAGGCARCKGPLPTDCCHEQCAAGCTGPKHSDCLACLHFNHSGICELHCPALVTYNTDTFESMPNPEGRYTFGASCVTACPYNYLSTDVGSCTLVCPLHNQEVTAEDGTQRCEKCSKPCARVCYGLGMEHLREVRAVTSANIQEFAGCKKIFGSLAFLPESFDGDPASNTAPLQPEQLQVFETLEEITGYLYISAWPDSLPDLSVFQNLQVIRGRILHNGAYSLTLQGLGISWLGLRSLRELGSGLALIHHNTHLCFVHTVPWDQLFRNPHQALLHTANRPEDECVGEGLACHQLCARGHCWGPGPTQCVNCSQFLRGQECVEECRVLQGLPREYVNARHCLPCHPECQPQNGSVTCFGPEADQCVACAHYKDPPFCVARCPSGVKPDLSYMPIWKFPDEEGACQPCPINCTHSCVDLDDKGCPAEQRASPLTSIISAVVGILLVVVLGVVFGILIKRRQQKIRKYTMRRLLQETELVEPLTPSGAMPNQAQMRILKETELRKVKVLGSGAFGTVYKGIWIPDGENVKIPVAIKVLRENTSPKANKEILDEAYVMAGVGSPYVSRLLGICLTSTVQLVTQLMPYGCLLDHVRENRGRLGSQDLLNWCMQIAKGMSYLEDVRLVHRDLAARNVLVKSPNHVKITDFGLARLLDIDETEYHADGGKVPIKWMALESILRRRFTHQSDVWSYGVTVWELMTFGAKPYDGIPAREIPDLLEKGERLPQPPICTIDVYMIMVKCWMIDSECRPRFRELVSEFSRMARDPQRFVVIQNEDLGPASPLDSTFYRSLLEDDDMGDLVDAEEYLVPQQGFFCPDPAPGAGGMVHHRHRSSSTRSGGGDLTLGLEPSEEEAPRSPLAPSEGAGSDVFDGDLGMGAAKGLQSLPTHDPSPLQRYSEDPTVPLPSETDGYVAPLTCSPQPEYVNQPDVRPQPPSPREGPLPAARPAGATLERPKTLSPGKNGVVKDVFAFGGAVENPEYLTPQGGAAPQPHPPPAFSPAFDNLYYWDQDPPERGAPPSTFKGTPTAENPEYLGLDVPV

IC50 [1]	IC50 [2]	IC50 [3]	IC50 [4]	SMILES
19 µM	1.23 µM	3.18 µM	8.66 µM	Cc1ccc2nc(Oc3ccc(Cl)cc3)c(/C=N/NC(=O)Cn3c([N+](=O)[O-])cnc3C)cc2c1
12 µM	0.92 µM	4.13 µM	0.27 µM	COc1ccc(Oc2nc3ccccc3cc2/C=N/NC(=O)Cn2c([N+](=O)[O-])cnc2C)cc1
	9.45 µM	13.3 µM		Cc1ncc([N+](=O)[O-])n1CC(=O)N/N=C/c1cc2ccccc2nc1Oc1ccccc1
0.37 µM	3.12 µM	0.18 µM	21 µM	Cc1ncc([N+](=O)[O-])n1CC(=O)N/N=C/c1cc2ccccc2nc1Oc1ccc(F)cc1
1.58 µM	7.18 µM	15.1 µM	3.17 µM	Cc1ccc2nc(Oc3ccccc3)c(/C=N/NC(=O)Cn3c([N+](=O)[O-])cnc3C)cc2c1
7.67 µM	21.5 µM	27.1 µM	23.1 µM	Cc1ccc(Oc2nc3ccccc3cc2/C=N/NC(=O)Cn2c([N+](=O)[O-])cnc2C)cc1
17 µM	1.19 µM	21.9 µM	0.18 µM	Cc1ccc(Oc2nc3ccc(C)cc3cc2/C=N/NC(=O)Cn2c([N+](=O)[O-])cnc2C)cc1
4.1 µM	9.03 µM	0.22 µM	5.12 µM	Cc1ncc([N+](=O)[O-])n1CC(=O)N/N=C/c1cc2ccccc2nc1Oc1ccc(Cl)cc1
2.18 µM	0.16 µM	3.15 µM	0.12 µM	COc1ccc(Oc2nc3ccc(C)cc3cc2/C=N/NC(=O)Cn2c([N+](=O)[O-])cnc2C)cc1
0.43 µM	0.19 µM	1.56 µM	0.42 µM	Cc1ccc2nc(Oc3ccc(F)cc3)c(/C=N/NC(=O)Cn3c([N+](=O)[O-])cnc3C)cc2c1
